Source: patent US12071408B2, “Multi-targeted tyrosine kinase inhibitors effective in antitumor uses” (Shanghai AB PharmaTech Ltd., priority 2021, dated 2024)

How the values were obtained:
EGFR = EGFR (Homo sapiens (Human), UniProt P00533); experiment: Kinase inhibition, Mobility-Shift Assay; assay type: biochemical; conditions: class; read-out: EGFR range of activity (IC50)
C-MET = C-MET (Homo sapiens (Human), UniProt P08581); experiment: Kinase inhibition, Mobility-Shift Assay; assay type: biochemical; conditions: class; read-out: C-MET range of activity (IC50)
Sequence of C-MET (P08581 25-1390): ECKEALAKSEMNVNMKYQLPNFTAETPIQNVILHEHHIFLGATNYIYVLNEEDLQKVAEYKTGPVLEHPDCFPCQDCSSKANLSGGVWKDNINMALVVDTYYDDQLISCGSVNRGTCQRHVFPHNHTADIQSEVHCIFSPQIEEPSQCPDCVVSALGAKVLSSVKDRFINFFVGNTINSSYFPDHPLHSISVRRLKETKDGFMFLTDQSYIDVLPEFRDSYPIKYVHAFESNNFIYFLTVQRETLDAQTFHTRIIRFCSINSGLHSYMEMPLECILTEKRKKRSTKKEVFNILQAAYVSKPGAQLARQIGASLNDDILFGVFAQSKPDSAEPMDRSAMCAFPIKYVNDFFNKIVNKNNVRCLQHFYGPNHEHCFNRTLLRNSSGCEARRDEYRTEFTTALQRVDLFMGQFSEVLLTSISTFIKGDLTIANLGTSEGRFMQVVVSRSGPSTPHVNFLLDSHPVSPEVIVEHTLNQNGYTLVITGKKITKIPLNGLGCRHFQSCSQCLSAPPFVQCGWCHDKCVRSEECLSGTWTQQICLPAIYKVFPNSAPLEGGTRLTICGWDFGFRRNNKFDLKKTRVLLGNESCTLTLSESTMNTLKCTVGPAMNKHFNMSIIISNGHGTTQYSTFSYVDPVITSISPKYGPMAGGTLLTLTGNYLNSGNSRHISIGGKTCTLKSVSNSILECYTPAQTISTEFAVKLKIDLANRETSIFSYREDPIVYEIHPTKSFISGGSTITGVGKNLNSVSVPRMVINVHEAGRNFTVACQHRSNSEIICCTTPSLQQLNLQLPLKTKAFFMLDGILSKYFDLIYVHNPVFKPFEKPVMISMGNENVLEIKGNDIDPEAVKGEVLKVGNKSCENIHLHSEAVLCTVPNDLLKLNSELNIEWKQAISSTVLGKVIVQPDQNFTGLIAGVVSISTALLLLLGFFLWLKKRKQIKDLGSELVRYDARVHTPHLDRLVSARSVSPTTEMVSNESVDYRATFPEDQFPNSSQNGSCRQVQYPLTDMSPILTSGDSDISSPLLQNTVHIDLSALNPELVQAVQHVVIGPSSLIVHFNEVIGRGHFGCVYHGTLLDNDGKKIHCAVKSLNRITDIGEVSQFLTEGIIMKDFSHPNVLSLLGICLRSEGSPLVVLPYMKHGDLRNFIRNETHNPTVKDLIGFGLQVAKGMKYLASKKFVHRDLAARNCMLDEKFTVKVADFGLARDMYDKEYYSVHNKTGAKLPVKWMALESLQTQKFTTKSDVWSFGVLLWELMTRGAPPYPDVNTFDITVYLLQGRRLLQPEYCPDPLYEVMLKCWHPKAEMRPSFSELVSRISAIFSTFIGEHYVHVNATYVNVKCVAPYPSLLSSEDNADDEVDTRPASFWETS

FGFR4 = FGFR4 (Homo sapiens (Human), UniProt P22455); experiment: Kinase inhibition, Mobility-Shift Assay; assay type: biochemical; conditions: class; read-out: FGFR4 range of activity effects (IC50)
[1] = test system: leukemia cell line (K562); experiment: Tumor cell proliferation inhibition (CTG, 72 h); assay type: cell-based; conditions: Homo sapiens; K562 cells, class; read-out: K562 activity effect range (IC50)
[2] = test system: cervical cancer cell line (Hela); experiment: Tumor cell proliferation inhibition (CTG, 72 h); assay type: cell-based; conditions: Homo sapiens; Hela cells, class; read-out: Hela activity effect range (IC50)
[3] = test system: hepatocellular carcinoma cell line (Hep3B 2.1-7); experiment: Tumor cell proliferation inhibition (CTG, 72 h); assay type: cell-based; conditions: Homo sapiens; Hep3B 2.1-7 cells, class; read-out: Hep3B 2.1-7 range of activity (IC50)
VEGFR-2 (KDR) = VEGFR-2 (KDR) (Homo sapiens (Human), UniProt P35968); experiment: Kinase inhibition, Mobility-Shift Assay; assay type: biochemical; conditions: class; read-out: KDR activity effect range (IC50)
Sequence of VEGFR-2 (KDR) (P35968 20-1356): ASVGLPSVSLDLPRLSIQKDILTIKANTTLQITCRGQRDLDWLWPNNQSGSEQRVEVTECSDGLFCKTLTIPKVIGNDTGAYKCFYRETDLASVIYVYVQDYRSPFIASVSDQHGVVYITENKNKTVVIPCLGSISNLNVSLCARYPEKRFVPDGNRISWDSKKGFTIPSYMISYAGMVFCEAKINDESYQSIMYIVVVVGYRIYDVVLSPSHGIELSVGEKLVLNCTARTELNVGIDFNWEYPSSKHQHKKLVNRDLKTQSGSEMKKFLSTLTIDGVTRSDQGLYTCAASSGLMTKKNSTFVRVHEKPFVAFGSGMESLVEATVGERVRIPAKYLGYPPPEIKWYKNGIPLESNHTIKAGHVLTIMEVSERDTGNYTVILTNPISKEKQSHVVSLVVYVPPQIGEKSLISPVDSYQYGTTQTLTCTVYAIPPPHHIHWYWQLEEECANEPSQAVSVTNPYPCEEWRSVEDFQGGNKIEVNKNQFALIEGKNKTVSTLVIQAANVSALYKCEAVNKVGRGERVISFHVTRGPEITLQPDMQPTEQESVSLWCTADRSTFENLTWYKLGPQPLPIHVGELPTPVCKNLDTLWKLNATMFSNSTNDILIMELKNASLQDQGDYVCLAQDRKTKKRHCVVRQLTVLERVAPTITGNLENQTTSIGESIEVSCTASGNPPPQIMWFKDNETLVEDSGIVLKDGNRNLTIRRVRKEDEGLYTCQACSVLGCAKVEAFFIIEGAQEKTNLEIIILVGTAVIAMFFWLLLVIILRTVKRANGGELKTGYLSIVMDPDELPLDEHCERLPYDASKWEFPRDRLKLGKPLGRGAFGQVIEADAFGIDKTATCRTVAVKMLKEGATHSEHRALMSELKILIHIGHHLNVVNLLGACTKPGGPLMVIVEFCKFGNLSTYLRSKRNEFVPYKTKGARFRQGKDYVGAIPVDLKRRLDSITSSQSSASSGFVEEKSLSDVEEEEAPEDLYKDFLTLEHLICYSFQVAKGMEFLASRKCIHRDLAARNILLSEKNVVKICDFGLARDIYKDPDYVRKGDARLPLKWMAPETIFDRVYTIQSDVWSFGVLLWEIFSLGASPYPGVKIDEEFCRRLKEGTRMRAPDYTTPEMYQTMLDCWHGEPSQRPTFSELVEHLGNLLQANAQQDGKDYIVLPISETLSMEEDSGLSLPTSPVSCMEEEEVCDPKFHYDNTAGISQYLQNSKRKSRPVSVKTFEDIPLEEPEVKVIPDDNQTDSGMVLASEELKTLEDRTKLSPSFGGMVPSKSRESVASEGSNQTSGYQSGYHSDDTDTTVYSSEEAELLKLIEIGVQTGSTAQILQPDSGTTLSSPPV

[4] = test system: thyroid cancer cell line (TT); experiment: Tumor cell proliferation inhibition (CTG, 72 h); assay type: cell-based; conditions: Homo sapiens; TT cells, class; read-out: TT range of activity (IC50)
FGFR2 = FGFR2 (Homo sapiens (Human), UniProt P21802); experiment: Kinase inhibition, Mobility-Shift Assay; assay type: biochemical; conditions: class; read-out: FGFR2 range of activity effects (IC50)
Sequence of FGFR2 (P21802 22-821): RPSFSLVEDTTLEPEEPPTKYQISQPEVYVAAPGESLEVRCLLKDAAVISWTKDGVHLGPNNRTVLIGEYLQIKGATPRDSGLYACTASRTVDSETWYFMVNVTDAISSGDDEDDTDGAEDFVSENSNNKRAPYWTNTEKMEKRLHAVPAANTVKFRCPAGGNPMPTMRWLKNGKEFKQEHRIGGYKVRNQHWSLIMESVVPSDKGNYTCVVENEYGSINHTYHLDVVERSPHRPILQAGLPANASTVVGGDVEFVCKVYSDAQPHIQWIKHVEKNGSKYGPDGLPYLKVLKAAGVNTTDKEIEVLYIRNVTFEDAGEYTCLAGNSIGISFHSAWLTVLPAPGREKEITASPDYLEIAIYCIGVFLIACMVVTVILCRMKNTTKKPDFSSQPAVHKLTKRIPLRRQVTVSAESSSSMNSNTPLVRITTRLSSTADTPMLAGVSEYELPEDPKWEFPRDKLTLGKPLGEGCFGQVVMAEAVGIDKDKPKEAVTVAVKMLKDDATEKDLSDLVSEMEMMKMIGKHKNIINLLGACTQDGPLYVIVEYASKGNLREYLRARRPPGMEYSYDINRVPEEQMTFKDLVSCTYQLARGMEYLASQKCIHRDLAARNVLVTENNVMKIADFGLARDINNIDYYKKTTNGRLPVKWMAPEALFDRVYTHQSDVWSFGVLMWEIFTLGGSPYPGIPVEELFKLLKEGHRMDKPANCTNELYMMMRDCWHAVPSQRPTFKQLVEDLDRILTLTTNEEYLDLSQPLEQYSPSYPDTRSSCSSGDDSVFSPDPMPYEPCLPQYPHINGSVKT

[5] = test system: bladder cancer cell line (RT112/84); experiment: Tumor cell proliferation inhibition (CTG, 72 h); assay type: cell-based; conditions: Homo sapiens; RT112/84 cells, class; read-out: RT112/84 range of activity (IC50)

Sequence of EGFR (P00533 25-1210): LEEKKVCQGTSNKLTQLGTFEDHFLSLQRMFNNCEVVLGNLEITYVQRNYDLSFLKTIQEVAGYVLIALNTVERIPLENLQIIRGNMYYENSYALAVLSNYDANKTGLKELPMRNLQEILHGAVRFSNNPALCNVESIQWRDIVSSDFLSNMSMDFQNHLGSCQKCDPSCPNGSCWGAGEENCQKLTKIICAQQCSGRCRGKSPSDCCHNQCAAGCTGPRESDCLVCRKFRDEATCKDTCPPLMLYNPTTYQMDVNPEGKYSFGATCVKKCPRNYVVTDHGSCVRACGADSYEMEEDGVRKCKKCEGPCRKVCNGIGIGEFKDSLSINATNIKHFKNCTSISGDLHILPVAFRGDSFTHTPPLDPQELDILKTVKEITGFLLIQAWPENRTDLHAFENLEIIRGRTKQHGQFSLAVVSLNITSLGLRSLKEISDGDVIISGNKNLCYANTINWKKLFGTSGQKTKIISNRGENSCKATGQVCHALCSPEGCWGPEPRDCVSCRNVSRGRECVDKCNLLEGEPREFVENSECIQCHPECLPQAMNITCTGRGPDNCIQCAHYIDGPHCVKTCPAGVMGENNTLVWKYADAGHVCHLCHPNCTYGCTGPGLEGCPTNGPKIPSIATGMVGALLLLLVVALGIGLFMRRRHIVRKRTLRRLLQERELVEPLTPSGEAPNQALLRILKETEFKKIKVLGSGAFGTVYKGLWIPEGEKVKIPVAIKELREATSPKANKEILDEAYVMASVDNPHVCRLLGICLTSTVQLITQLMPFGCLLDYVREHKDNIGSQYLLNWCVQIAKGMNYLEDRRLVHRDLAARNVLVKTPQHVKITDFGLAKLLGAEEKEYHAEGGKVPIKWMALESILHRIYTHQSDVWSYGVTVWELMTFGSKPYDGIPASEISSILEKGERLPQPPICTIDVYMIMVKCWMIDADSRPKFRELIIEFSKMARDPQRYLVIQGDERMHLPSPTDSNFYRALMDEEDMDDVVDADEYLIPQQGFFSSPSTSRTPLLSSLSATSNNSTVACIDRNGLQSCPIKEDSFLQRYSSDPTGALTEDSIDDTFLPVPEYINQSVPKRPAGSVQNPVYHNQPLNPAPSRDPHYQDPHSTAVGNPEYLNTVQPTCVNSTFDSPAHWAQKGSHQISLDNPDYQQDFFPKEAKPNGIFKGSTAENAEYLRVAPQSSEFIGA

| SMILES | IC50 (EGFR) [nM] | IC50 (C-MET) [nM] | IC50 (FGFR4) [nM] | IC50 [1] [nM] | IC50 [2] [nM] | IC50 [3] [nM] | IC50 (VEGFR-2 (KDR)) [nM] | IC50 [4] [nM] | IC50 (FGFR2) [nM] | IC50 [5] [nM] |
| --- | --- | --- | --- | --- | --- | --- | --- | --- | --- | --- |
| COc1cc2nccc(Oc3c(F)cc(NC(=O)N[C@@H](C)CO)c(Cl)c3F)c2cc1C(N)=O [III-07] | > 100 | > 100 | > 100 | > 10000 | > 10000 | > 5000 | > 10 | > 10000 | > 100 | > 1000 |
| COc1cc2nccc(Oc3c(F)cc(NC(=O)NC4(C)CC4)c(F)c3F)c2cc1C(N)=O [III-21] | > 100 | > 100 | > 100 | > 10000 | > 10000 | > 5000 | > 10 | > 10000 | > 100 | > 1000 |
| COc1cc2nccc(Oc3c(F)cc(NC(=O)NC4CC4(F)F)c(Cl)c3F)c2cc1C(N)=O (stereo not shown) [III-24] | > 100 | > 100 | > 100 | > 10000 | > 10000 | > 5000 | > 10 | > 10000 | > 100 | > 1000 |
| CCC(C)NC(=O)Nc1cc(F)c(Oc2ccnc3cc(OC)c(C(N)=O)cc23)c(F)c1Cl (stereo not shown) [III-03] | > 100 | > 100 | > 100 | > 10000 | > 10000 | > 5000 | > 10 | > 10000 | > 100 | > 1000 |
| COc1cc2nccc(Oc3c(F)cc(NC(=O)NC(CO)CO)c(Cl)c3F)c2cc1C(N)=O [III-13] | > 100 | > 100 | > 100 | > 10000 | > 10000 | > 5000 | > 10 | > 10000 | > 100 | > 1000 |
| COc1cc2nccc(Oc3c(F)cc(NC(=O)NC[C@H](C)O)c(Cl)c3F)c2cc1C(N)=O [III-09] | > 100 | > 100 | > 100 | > 10000 | > 10000 | > 5000 | > 10 | > 10000 | > 100 | > 1000 |
| COc1cc2nccc(Oc3c(F)cc(NC(=O)NCC(C)(C)O)c(Cl)c3F)c2cc1C(N)=O [III-12] | > 100 | > 100 | > 100 | > 10000 | > 10000 | > 5000 | > 10 | > 10000 | > 100 | > 1000 |
| COc1cc2nccc(Oc3c(F)cc(NC(=O)NC[C@@H](C)O)c(Cl)c3F)c2cc1C(N)=O [III-10] | > 100 | > 100 | > 100 | > 10000 | > 10000 | > 5000 | > 10 | > 10000 | > 100 | > 1000 |
| COc1cc2nccc(Oc3c(F)cc(NC(=O)NC(C)(C)C)c(Cl)c3F)c2cc1C(N)=O [III-04] | > 100 | > 100 | > 100 | > 10000 | > 10000 | > 5000 | > 10 | > 10000 | > 100 | > 1000 |
| COc1cc2nccc(Oc3c(F)cc(NC(=O)NC[C@@H](O)CO)c(Cl)c3F)c2cc1C(N)=O [III-15] | > 100 | > 100 | > 100 | > 10000 | > 10000 | > 5000 | > 10 | > 10000 | > 100 | > 1000 |
| COc1cc2nccc(Oc3c(F)cc(NC(=O)N[C@H](C)CO)c(Cl)c3F)c2cc1C(N)=O [III-08] | > 100 | > 100 | > 100 | > 10000 | > 10000 | > 5000 | > 10 | > 10000 | > 100 | > 1000 |

Other lines, results leading:

| IC50 (EGFR) [nM] | IC50 (C-MET) [nM] | IC50 (FGFR4) [nM] | IC50 [1] [nM] | IC50 [2] [nM] | IC50 [3] [nM] | IC50 (VEGFR-2 (KDR)) [nM] | IC50 [4] [nM] | IC50 (FGFR2) [nM] | IC50 [5] [nM] | SMILES |
| --- | --- | --- | --- | --- | --- | --- | --- | --- | --- | --- |
| > 100 | > 100 | > 100 | > 10000 | > 10000 | > 5000 | > 10 | > 10000 | > 100 | > 1000 | COc1cc2nccc(Oc3c(F)cc(NC(=O)NC4CC4)c(Cl)c3OC)c2cc1C(N)=O [III-41] |
| > 100 | > 100 | > 100 | > 10000 | > 10000 | > 5000 | > 10 | > 10000 | > 100 | > 1000 | COc1cc2nccc(Oc3c(F)cc(NC(=O)NC4CC4)c(N(C)C)c3F)c2cc1C(N)=O [III-46] |
| > 100 | > 100 | > 100 | > 10000 | > 10000 | > 5000 | > 10 | > 10000 | > 100 | > 1000 | COc1cc2nccc(Oc3c(F)cc(NC(=O)NC4CC4)c(OC)c3F)c2cc1C(N)=O [III-40] |
| > 100 | > 100 | > 100 | > 10000 | > 10000 | > 5000 | > 10 | > 10000 | > 100 | > 1000 | COc1cc2nccc(Oc3c(F)cc(NC(=O)NC(C)C(F)(F)F)c(Cl)c3F)c2cc1C(N)=O (stereo not shown) [III-38] |
| > 100 | > 100 | > 100 | > 10000 | > 10000 | > 5000 | > 10 | > 10000 | > 100 | > 1000 | COc1cc2nccc(Oc3c(F)cc(NC(=O)NCC4CC4)c(Cl)c3F)c2cc1C(N)=O [III-25] |
| > 100 | > 100 | > 100 | > 10000 | > 10000 | > 5000 | > 10 | > 10000 | > 100 | > 1000 | COc1cc2nccc(Oc3c(F)cc(NC(=O)N4CC[C@H](O)C4)c(Cl)c3F)c2cc1C(N)=O [III-31] |
| > 100 | > 100 | > 100 | > 10000 | > 10000 | > 5000 | > 10 | > 10000 | > 100 | > 1000 | COc1cc2nccc(Oc3c(F)c(F)c(NC(=O)NC4CC4)c(F)c3F)c2cc1C(N)=O [III-36] |
| > 100 | > 100 | > 100 | > 10000 | > 10000 | > 5000 | > 10 | > 10000 | > 100 | > 1000 | COc1cc2nccc(Oc3c(F)c(N(C)C)c(NC(=O)NC4CC4)c(N(C)C)c3F)c2cc1C(N)=O [III-52] |
| > 100 | > 100 | > 100 | > 10000 | > 10000 | > 5000 | > 10 | > 10000 | > 100 | > 1000 | COc1cc2nccc(Oc3c(F)c(F)c(NC(=O)NC4CC4)c(N(C)C)c3F)c2cc1C(N)=O [III-50] |
| > 100 | > 100 | > 100 | > 10000 | > 10000 | > 5000 | > 10 | > 10000 | > 100 | > 1000 | COc1cc2nccc(Oc3c(F)cc(NC(=O)NC4CCC4)c(Cl)c3F)c2cc1C(N)=O [III-26] |
| > 100 | > 100 | > 100 | > 10000 | > 10000 | > 5000 | > 10 | > 10000 | > 100 | > 1000 | C=CC1CC1(NC(=O)Nc1cc(F)c(Oc2ccnc3cc(OC)c(C(N)=O)cc23)c(F)c1Cl)C(=O)NC1CC1 (stereo not shown) [III-37] |
| > 100 | > 100 | > 100 | > 10000 | > 10000 | > 5000 | > 10 | > 10000 | > 100 | > 1000 | COc1cc2nccc(Oc3c(F)cc(NC(=O)NC4CC4)c(Cl)c3N(C)C3CC3)c2cc1C(N)=O [III-48] |
| > 100 | > 100 | > 100 | > 10000 | > 10000 | > 5000 | > 10 | > 10000 | > 100 | > 1000 | COc1cc2nccc(Oc3c(F)cc(NC(=O)NC4CC4)c(Cl)c3OC3CC3)c2cc1C(N)=O [III-45] |
| > 100 | > 100 | > 100 | > 10000 | > 10000 | > 5000 | > 10 | > 10000 | > 100 | > 1000 | [2H]C([2H])([2H])Oc1c(Cl)c(NC(=O)NC2CC2)cc(F)c1Oc1ccnc2cc(OC)c(C(N)=O)cc12 [III-43] |
